Experimental findings from article PMC11187126, “Structure and dynamics of the pyroglutamylated RF-amide peptide QRFP receptor GPR103” (Nature Communications, 2024) are described below.

Where two headings read alike, the source gives them in different places. No end group written: not given here.

The target of the test is T1, GPR103 F25N-termA (Homo sapiens, UniProt Q96P65, F25A).
T1 construct: we used human full-length QRFPR-encoding plasmids; expressed in transfected cells; host or cells: HEK293 cells, pCAGGS vector
T1 sequence (Q96P65 1-431 F25A): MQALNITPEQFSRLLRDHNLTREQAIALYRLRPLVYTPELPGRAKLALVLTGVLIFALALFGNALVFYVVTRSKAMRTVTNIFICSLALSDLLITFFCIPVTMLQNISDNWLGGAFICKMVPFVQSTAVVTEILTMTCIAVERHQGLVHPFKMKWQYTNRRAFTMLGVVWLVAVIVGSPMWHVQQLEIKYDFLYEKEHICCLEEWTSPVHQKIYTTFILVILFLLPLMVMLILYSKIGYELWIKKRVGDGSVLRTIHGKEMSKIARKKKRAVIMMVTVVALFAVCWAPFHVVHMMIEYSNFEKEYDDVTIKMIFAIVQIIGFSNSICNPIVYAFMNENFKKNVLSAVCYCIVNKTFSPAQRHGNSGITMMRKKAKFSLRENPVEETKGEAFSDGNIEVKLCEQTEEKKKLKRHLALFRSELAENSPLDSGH
Put plainly: TGFα shedding assay; Exp. level >WT (1:1). The class given is cell-based. The method, then: For the TGFα shedding assay and the flow cytometry analysis, we used human full-length QRFPR-encoding plasmids. Specifically, GPR103 was N-terminally modified with an HA signal sequence followed by a FLAG epitope and then a flexible linker ([…]; the FLAG epitope is underlined) and inserted into the pCAGGS vector. Plasmid encoding GPR103 mutants were generated using Quickchange Site-Directed Mutagensis kit (Agilent).
The TGFα shedding assay was performed as described previously with minor modifications. Plasmid transfection was performed in a 6-well plate with a mixture of 500 ng (per well in a 6-well plate) AP-TGFα-encoding plasmid and 200 ng GPR103-encoding plasmid. After 1-day culture, the transfected cells were harvested by trypsinization, pelleted by centrifugation at 190 × g for 5 min, and washed once with 5 mM HEPES (pH 7.4)-containing Hank’s Balanced Salt Solution (HBSS). After centrifugation, the cells were resuspended in 8 mL of the HEPES-containing HBSS. The cell suspension was seeded in a 96-well culture plate (cell plate) at a volume of 90 μL (per well hereafter) and incubated in a 37 °C incubator with 5% CO2 for 30 min. […] After spinning the cell plates at 190 × g for 2 min, 80 μL of conditioned media was transferred to an empty 96-well plate (conditioned media (CM) plate). Then, 80 μL of AP reaction solution (10 mM p-nitrophenylphosphate (p-NPP), 120 mM Tris-HCl (pH 9.5), 40 mM NaCl, and 10 mM MgCl2) was dispensed into the cell plates and the CM plates. Absorbance at 405 nm of the plates was measured using a microplate reader (SpectraMax 340 PC384, Molecular Devices) before and after 1-h incubation at room temperature. Ligand-induced AP-TGFα release was calculated by subtracting spontaneous AP-TGFα release signal from ligand-induced AP-TGFα release signal. The AP-TGFα release signals were fitted to a four-parameter sigmoidal concentration–response curve, using the Prism 10 software (GraphPad Prism). For each replicate experiment, the pEC50 parameter (negative logarithmic values of EC50 values) of the individual GPR103 mutants were normalized to that of the wild-type GPR103 performed in parallel, and resulting ∆pEC50 values were used to denote ligand response activity of the mutants. […]
Exp. le vel: WT (1:5 0)Exp. le vel: WT (1:5 0)Exp. le vel: WT (1:5 0)Exp. le vel: WT (1:2 0)Exp. le vel: WT (1:2 0)Exp. le vel: WT (1:1 0) […]
L1 4N - t e r mA F2 5N - t e r mA I 2 6N - t e r mA Y 2 9N - t e r mA C 9 82 .5 7A T10 22 .6 1A Exp . l eve l: WT (1 :5)Exp . l evel : >WT (1 :1)Exp. le vel: WT (1:2 0)Exp. le vel: WT (1:2 0)Exp. le vel: WT (1:5 0)Exp . l eve l: WT (1 :1) […]
Exp. le vel: WT (1:1 0)Exp. le vel: WT (1:2 0) C 1 1 83 .2 5AExp. le vel: WT (1:5 0)Exp. le vel: WT (1:5 0)Exp. le vel: WT (1:2 0)Exp . l eve l: WT (1 :5) […]
Exp. le vel: WT (1:5 0)Exp. le vel: WT (1:1 0)Exp. le vel: WT (1:5 0) E203ECL2AExp . l evel : >WT (1 :1)Exp. le vel: WT (1:5 0)Exp. le vel: WT (1:5 0) […]
Exp . l eve l: WT (1 :1) F28Exp. le vel: WT (1:5 0) C 2 8 56 .4 7AExp. le vel: WT (1:2 0) WExp. le vel: WT (1:2 0) F28Exp. le vel: WT (1:5 0)Exp . l evel : >WT (1 :1) […]
Exp. le vel: WT (1:5 0)Exp. le vel: WT (1:5 0) C 3 2 77 .4 8AExp . l eve l: WT (1 :5)Exp . l evel : >WT (1 :1)Exp . l evel : >WT (1 :1) […]
Suppl eme nt ary Figure 1 | Mutational analysis of GPR103. […]
mutants. Data are presented as mean values ± SEM, normally n=3-5; dots), each performed in triplicate. b-d Cell-surface expression (b) and QRFP26-in-duced activation of GPR103 (c, d) were analyzed by the flow cytometry and the TGFα shedding assay, respectively. From the concentration–response curves (a), Emax (c) and ΔpEC50 (d) values relative to the wild type were calculated. Colors in the mutant bars indicate an expression level matching to that of titrated wild type. Statistical analyses were performed using the ordinary one-way ANOVA followed by Dunnett tests with the expression-matched […]

For TSGPLGNLAEELNGYSRKKGGFSFRF-NH2 [QRFP26], the Emax reads like this: (Exp. #1) 108.31 % WT; (Exp. #2) 103.77 % WT; (Exp. #3) 108.41 % WT; (mean, read-out: Emax) 107%; (n = 3, read-out: Emax) 110 ± 1.2%. Where the note is “n = 3”, this substance showed an EC50 of 79.4 nM.

In general, EC50 refers to the concentration at which the effect is half-maximal. Low values mean a more potent agent, high ones a less potent agent.
